Assay results published in ChEMBL document CHEMBL4507258 (2021).

Columns and labels:
[1] = target: Neuropeptide Y receptor type 1 (Homo sapiens) (UniProt P25929); assay: Y1 receptor CEREP ligand profiling; conditions: Compound concentration 10.0 uM
[2] = target: Muscarinic acetylcholine receptor M4 (Homo sapiens) (UniProt P08173); assay: Muscarinic M4 receptors (h) CEREP ligand profiling; conditions: Compound concentration 10.0 uM
[3] = target: Muscarinic acetylcholine receptor M3 (Homo sapiens) (UniProt P20309); assay: Muscarinic M3 receptors (h) CEREP ligand profiling; conditions: Compound concentration 10.0 uM
[4] = target: Neuropeptide Y receptor type 2 (Homo sapiens) (UniProt P49146); assay: Y2 receptor CEREP ligand profiling; conditions: Compound concentration 10.0 uM
[5] = target: Tumor necrosis factor (Homo sapiens) (UniProt P01375); assay: Tumor necrosis factor-alpha CEREP ligand profiling; conditions: Compound concentration 10.0 uM
[6] = Cl- ionophore CEREP ligand profiling; conditions: Compound concentration 10.0 uM
[7] = target: T1, Muscarinic acetylcholine receptor M2 (Homo sapiens) (UniProt P08172); assay: Muscarinic M2 receptors (h) CEREP ligand profiling; conditions: Compound concentration 10.0 uM
T1 sequence (whole entry): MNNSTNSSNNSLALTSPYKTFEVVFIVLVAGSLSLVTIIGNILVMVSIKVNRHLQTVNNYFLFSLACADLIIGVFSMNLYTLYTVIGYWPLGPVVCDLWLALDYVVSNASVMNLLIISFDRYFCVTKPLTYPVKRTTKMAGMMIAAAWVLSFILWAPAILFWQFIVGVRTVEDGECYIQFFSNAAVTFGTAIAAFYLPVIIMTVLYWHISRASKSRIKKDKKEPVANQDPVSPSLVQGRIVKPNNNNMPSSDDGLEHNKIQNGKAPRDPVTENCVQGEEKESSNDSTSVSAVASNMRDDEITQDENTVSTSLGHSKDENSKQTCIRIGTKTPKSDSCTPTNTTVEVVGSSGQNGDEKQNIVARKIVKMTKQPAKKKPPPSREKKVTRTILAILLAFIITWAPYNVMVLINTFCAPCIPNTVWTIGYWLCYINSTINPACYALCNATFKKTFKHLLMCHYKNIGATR

[8] = target: Interleukin-1 beta (Homo sapiens) (UniProt P01584); assay: Interleukin-1beta CEREP ligand profiling; conditions: Compound concentration 10.0 uM
[9] = target: T2, 5-hydroxytryptamine receptor 3A (Homo sapiens) (UniProt P46098); assay: 5-Hydroxytryptamine3 CEREP ligand profiling; conditions: Compound concentration 10.0 uM
T2 sequence (whole entry): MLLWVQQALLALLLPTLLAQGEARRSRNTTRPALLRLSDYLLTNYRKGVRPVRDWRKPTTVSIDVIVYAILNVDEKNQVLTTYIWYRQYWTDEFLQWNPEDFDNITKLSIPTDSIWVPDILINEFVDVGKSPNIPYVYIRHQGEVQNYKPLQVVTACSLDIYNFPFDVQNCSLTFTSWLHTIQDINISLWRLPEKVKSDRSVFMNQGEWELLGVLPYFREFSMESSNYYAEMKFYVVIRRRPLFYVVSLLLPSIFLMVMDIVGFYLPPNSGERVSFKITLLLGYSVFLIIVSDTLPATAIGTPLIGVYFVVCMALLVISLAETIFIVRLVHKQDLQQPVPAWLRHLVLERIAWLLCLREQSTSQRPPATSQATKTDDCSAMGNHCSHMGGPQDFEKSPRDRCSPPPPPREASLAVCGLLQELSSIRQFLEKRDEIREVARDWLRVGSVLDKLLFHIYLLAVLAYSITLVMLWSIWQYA

[10] = target: Adenosine receptor A3 (Homo sapiens) (UniProt P0DMS8); assay: Adenosine A 3 receptor (h) CEREP ligand profiling; conditions: Compound concentration 10.0 uM
[11] = target: Muscarinic acetylcholine receptor M4 (Homo sapiens) (UniProt P08173); conditions: Compound concentration 10.0 uM
[12] = target: Voltage-gated (volt-dependent) potassium channel (Homo sapiens, UniProt O43525+O43526+O95259+P16389+P17658+P22001+P22459+P22460+P48547+P51787+P56696+Q03721+Q09470+Q12809+Q14003+Q14721+Q16322+Q6PIU1+Q8NCM2+Q8TAE7+Q8TDN1+Q8TDN2+Q92953+Q96KK3+Q96L42+Q96PR1+Q96RP8+Q9BQ31+Q9H252+Q9H3M0+Q9NR82+Q9NS40+Q9NSA2+Q9NZV8+Q9UIX4+Q9UJ96+Q9UK17+Q9ULD8+Q9ULS6+Q9UQ05); assay: K+ channel (volt-dependent) CEREP ligand profiling; format: protein assay; conditions: compound concentration 10 uM
[13] = target: GABA-A receptor; anion channel (Rattus norvegicus) (UniProt O09028+P15431+P18506+P18508+P19969+P20236+P23574+P23576+P28471+P28473+P30191+P62813+P63079+P63138+Q91ZM7+Q9ES14); conditions: Compound concentration 10.0 uM
[14] = target: Serine/threonine-protein kinase SIK1 (Homo sapiens, UniProt P57059); assay: Inhibition of SIK1 at compound concentration of 10.0 uM using the ScanMax (DiscoverX)
[15] = target: Adenosine receptor A2a (Homo sapiens) (UniProt P29274); assay: Adenosine A 2A receptor (h) CEREP ligand profiling; conditions: Compound concentration 10.0 uM
Sodium channel (site 2) = Sodium channel (site 2) (Homo sapiens, UniProt P35498+P35499+Q01118+Q14524+Q15858+Q99250+Q9NY46+Q9UI33+Q9UQD0+Q9Y5Y9); assay: Na+ channel (site 2) CEREP ligand profiling; format: protein assay; conditions: compound concentration 10 uM
[16] = target: Endothelin-1 receptor (Homo sapiens) (UniProt P25101); conditions: Compound concentration 10.0 uM
[17] = target: Beta-1 adrenergic receptor (Homo sapiens) (UniProt P08588); conditions: Compound concentration 10.0 uM
[18] = target: Cannabinoid receptor 2 (Homo sapiens) (UniProt P34972); assay: Cannabinoid CB2 receptor (h) CEREP ligand profiling; conditions: Compound concentration 10.0 uM
[19] = target: Type-2 angiotensin II receptor (Homo sapiens) (UniProt P50052); assay: Angiotensin AT2 receptor (h) CEREP ligand profiling; conditions: Compound concentration 10.0 uM
[20] = target: 5-hydroxytryptamine receptor 5A (Homo sapiens) (UniProt P47898); assay: 5-Hydroxytryptamine5A (h) CEREP ligand profiling; conditions: Compound concentration 10.0 uM
Histamine H1 receptor = Histamine H1 receptor (Homo sapiens, UniProt P35367); assay: GPCRScan assay: inhibition of H1; parameters: radioligand conc. used [nm] 0.6 – 2.0, parental cells stable HEK
[21] = target: P2X receptor (Rattus norvegicus) (UniProt P51579+P49653+P51578+Q64663+P47824+P51577+P49654); assay: P2X-purinergic receptor CEREP ligand profiling; format: protein assay; conditions: Compound concentration 10.0 uM
[22] = target: Neurotensin receptor (Homo sapiens) (UniProt O95665+P30989); assay: Neurotensin receptor (h) CEREP ligand profiling; format: protein assay; conditions: Compound concentration 10.0 uM
[23] = target: 5-hydroxytryptamine receptor 2B (Homo sapiens, UniProt P41595); assay: GPCRScan assay: inhibition of 5-HT2B; parameters: radioligand conc. used [nm] 1.0 – 2.0, parental cells stable HEK
[24] = target: 5-hydroxytryptamine receptor 2C (Homo sapiens) (UniProt P28335); conditions: Compound concentration 10.0 uM
[25] = target: Alpha-1D adrenergic receptor (Homo sapiens) (UniProt P25100); conditions: Compound concentration 10.0 uM
Chain of Alpha-1D adrenergic receptor (Homo sapiens) (P25100 whole entry): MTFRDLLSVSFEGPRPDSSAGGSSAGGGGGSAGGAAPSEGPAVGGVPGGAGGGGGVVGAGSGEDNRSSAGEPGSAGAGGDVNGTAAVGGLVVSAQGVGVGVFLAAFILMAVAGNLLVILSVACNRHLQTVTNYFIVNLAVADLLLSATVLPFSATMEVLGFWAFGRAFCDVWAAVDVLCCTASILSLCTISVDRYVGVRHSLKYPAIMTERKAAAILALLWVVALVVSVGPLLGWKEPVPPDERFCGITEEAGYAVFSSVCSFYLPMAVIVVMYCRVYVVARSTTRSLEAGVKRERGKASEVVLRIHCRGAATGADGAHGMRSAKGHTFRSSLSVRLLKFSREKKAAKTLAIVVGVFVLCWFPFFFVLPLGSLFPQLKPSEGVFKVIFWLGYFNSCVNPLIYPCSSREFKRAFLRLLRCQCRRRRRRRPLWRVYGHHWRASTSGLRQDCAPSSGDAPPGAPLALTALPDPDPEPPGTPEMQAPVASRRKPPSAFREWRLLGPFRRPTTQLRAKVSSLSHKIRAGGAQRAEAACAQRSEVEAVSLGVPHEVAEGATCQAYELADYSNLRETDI

Chain of Muscarinic acetylcholine receptor M4 (Homo sapiens) (P08173 whole entry): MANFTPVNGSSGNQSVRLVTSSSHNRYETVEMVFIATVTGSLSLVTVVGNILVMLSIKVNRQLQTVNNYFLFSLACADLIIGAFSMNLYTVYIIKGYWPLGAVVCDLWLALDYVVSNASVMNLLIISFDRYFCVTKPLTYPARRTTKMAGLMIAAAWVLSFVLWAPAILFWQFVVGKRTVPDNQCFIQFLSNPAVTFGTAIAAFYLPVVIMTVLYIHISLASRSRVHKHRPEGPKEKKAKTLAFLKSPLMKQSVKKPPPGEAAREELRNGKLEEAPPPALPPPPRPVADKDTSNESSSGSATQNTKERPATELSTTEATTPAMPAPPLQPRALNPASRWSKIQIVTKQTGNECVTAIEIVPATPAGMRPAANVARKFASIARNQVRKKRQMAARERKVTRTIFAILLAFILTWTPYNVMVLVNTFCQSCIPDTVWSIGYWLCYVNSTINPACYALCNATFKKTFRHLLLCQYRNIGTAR
Chain of 5-hydroxytryptamine receptor 2B (P41595 whole entry): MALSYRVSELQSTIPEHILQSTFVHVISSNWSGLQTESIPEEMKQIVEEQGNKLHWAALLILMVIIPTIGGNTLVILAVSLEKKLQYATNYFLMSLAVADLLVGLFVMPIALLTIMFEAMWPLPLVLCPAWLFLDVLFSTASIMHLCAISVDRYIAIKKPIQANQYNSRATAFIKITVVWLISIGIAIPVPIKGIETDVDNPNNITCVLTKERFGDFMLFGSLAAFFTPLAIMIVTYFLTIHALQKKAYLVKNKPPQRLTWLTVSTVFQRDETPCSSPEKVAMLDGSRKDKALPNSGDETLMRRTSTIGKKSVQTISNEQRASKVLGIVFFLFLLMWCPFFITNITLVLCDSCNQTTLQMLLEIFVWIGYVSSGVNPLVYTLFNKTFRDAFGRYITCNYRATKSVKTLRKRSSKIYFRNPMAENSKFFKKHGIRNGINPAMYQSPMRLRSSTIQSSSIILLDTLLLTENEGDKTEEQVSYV
Chain of Adenosine receptor A2a (Homo sapiens) (P29274 whole entry): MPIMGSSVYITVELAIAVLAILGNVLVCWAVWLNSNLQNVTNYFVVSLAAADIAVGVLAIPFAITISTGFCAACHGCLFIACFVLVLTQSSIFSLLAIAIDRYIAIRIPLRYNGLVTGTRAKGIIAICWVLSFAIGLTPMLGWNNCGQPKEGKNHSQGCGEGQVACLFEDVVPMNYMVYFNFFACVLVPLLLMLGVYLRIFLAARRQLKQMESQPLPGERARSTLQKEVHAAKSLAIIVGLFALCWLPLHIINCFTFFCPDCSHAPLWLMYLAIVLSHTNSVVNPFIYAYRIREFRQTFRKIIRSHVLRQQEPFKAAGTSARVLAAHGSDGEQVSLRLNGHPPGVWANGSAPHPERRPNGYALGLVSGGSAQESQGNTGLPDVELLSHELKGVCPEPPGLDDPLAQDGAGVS
Chain of Adenosine receptor A3 (Homo sapiens) (P0DMS8 whole entry): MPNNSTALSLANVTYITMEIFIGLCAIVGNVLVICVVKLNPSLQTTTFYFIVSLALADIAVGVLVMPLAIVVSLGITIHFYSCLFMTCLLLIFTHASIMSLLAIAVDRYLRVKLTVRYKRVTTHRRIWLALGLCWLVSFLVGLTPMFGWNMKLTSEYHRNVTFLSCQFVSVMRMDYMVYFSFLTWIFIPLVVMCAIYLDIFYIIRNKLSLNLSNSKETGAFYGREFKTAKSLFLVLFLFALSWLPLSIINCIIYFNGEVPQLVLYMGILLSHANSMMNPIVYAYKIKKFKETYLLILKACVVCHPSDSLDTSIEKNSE
Chain of Serine/threonine-protein kinase SIK1 (P57059 whole entry): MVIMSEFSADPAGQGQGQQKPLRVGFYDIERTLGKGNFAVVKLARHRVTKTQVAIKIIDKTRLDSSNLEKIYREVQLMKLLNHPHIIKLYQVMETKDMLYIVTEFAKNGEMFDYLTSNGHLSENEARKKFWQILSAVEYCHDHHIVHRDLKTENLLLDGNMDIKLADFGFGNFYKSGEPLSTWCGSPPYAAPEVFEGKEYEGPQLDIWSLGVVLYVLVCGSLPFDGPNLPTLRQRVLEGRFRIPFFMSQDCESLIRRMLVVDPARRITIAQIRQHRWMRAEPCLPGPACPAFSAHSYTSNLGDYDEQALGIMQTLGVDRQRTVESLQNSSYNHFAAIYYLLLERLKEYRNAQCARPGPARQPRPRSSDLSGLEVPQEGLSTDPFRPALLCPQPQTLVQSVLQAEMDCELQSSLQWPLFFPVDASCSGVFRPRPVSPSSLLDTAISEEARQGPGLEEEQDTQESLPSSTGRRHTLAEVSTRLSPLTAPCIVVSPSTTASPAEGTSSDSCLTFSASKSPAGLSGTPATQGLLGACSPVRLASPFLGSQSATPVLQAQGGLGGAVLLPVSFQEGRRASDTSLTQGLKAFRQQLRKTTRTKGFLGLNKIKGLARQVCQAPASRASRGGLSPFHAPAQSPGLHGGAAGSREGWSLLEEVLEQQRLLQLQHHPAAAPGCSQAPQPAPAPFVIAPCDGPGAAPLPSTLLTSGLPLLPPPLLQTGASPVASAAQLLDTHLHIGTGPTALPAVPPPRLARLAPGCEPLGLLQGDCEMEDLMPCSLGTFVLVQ
Chain of Type-2 angiotensin II receptor (Homo sapiens) (P50052 whole entry): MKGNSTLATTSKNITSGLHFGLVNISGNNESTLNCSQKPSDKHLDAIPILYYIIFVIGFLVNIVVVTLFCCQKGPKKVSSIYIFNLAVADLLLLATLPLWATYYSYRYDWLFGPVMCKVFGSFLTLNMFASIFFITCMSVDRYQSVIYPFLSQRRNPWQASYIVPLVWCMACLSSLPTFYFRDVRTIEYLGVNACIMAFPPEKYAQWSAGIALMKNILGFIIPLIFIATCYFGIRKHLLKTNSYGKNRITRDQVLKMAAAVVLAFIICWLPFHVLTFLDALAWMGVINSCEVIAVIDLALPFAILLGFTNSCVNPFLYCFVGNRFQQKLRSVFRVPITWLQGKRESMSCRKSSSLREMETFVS
Chain of Endothelin-1 receptor (Homo sapiens) (P25101 whole entry): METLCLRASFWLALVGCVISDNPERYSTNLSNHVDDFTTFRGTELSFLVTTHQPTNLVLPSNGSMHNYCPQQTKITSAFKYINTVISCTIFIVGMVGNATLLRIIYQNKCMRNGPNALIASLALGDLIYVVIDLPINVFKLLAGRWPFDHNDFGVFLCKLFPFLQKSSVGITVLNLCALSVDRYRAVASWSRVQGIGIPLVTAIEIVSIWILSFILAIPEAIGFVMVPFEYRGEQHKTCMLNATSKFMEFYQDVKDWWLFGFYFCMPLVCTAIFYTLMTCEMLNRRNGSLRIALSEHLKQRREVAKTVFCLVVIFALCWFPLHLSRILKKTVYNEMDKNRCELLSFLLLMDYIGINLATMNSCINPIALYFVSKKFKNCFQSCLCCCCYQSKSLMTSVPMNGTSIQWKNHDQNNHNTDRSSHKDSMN
Chain of Interleukin-1 beta (Homo sapiens) (P01584 117-269 limits assumed): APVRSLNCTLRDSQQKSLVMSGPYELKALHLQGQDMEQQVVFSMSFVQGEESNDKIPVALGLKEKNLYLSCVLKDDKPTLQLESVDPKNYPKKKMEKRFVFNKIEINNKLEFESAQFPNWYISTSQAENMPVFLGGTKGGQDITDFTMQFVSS
Chain of Muscarinic acetylcholine receptor M3 (Homo sapiens) (P20309 whole entry, looked up): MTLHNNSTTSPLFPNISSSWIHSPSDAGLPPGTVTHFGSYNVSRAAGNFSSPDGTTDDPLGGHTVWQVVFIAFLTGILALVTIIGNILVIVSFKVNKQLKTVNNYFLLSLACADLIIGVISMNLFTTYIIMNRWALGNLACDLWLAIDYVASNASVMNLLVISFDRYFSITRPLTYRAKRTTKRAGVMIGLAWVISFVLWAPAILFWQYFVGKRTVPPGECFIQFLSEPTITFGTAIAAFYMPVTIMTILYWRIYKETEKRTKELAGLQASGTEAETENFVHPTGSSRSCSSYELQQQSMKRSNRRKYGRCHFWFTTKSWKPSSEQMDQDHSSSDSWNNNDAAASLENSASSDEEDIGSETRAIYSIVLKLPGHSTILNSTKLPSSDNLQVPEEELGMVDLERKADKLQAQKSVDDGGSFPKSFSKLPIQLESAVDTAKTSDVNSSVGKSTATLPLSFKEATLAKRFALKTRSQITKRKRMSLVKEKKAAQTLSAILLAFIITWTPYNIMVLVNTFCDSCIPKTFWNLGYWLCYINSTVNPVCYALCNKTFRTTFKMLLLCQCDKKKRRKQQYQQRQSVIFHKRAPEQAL
Chain of Neuropeptide Y receptor type 2 (Homo sapiens) (P49146 whole entry): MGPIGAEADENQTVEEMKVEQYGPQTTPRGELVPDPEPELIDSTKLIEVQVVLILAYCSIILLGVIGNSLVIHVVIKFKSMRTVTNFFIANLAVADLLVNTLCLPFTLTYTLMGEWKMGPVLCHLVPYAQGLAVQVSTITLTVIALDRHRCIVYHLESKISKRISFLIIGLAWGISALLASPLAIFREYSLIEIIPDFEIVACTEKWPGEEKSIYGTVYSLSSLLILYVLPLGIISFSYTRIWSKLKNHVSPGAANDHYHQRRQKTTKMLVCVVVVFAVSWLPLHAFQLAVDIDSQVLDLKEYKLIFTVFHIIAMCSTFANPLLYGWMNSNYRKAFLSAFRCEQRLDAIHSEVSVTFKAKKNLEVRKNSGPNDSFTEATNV

**Q.** For `CCCCN(CCCC)C(=O)CN1C[C@H](c2cc(OC)c3c(c2)OCO3)[C@@H](C(=O)O)[C@@H]1CC(C)(C)CCC` [ABT-546], which inhibition [1] is on record?
**A.** < 10%

**Q.** What about the inhibition [2] of the same compound?
**A.** < 10%

**Q.** And the inhibition [3]?
**A.** < 10%

**Q.** And the inhibition [4]?
**A.** < 10%

**Q.** What about the inhibition [5] of the same compound?
**A.** < 10%

**Q.** What about the inhibition [6] of the same compound?
**A.** 61%

**Q.** And the inhibition [7]?
**A.** < 10%

**Q.** What about the inhibition [8] of the same compound?
**A.** < 10%

**Q.** What about the inhibition [9] of the same compound?
**A.** < 10%

**Q.** What about the inhibition [10] of the same compound?
**A.** 32%

**Q.** What about the inhibition [11] of the same compound?
**A.** 8.5%

**Q.** And the inhibition at 10 µM [12]?
**A.** < 10% (not active)

**Q.** And the inhibition [13]?
**A.** -5.72%

**Q.** What about the Kd [14] of the same compound?
**A.** > 10 µM (not active)

**Q.** What about the inhibition [15] of the same compound?
**A.** < 10%

**Q.** And the inhibition at 10 µM (Sodium channel (site 2))?
**A.** < 10% (not active)

**Q.** And the inhibition [16]?
**A.** 98%

**Q.** What about the inhibition [17] of the same compound?
**A.** -6.6%

**Q.** What about the inhibition [18] of the same compound?
**A.** 11%

**Q.** What about the inhibition [19] of the same compound?
**A.** < 10%

**Q.** And the inhibition [20]?
**A.** < 10%

**Q.** What about the Ki (Histamine H1 receptor) of the same compound?
**A.** 10 µM

**Q.** And the inhibition [21]?
**A.** 37%

**Q.** What about the inhibition [22] of the same compound?
**A.** < 10%

**Q.** For `CCCCN(CCCC)C(=O)CN1C[C@@H](c2cc(OC)c3c(c2)OCO3)[C@H](C(=O)O)[C@H]1CC(C)(C)CCC` [A-545], which Ki ([23]; read-out: Ki) is on record?
**A.** 6.52 µM

**Q.** And the Ki ([23]; read-out: pKi (converted))?
**A.** 5.82 µM

**Q.** And the inhibition [24]?
**A.** 15.7%

**Q.** What about the inhibition [25] of the same compound?
**A.** 6.55%
